Laboratory results from ChEMBL document CHEMBL1145028, “Retroinverso analogue of the antiviral octapeptide C8 inhibits feline immunodeficiency virus in serum” (J Med Chem, 2003).
≈ marks a conversion by molar mass, not a printed value.

Key:
[1] = test system: Feline immunodeficiency virus; test: Concentration required to inhibit feline immunodeficiency virus (FIV) replication in 50% normal cat serum (NCS); type: functional, organism-based
[2] = test system: Feline immunodeficiency virus; test: Concentration required to inhibit feline immunodeficiency virus (FIV) replication in normal tissue culture medium; type: functional, organism-based

Molecule | IC50 [1] [µg/mL] | IC50 [2] [µg/mL]
CC[C@@H](C)[C@@H](NC(C)=O)C(=O)N[C@H](Cc1c[nH]c2ccccc12)C(=O)NCC(=O)N[C@@H](C(=O)N[C@H](Cc1c[nH]c2ccccc12)C(=O)N[C@H](CC(=O)O)C(=O)N[C@H](CCC(=O)O)C(=O)N[C@H](Cc1c[nH]c2ccccc12)C(N)=O)C(C)C | 0.8 (≈ 0.707 µM) | 0.63 (≈ 0.557 µM)
Ac-WEDWVGWI-NH2 | 5.21 | 0.15
